Experimental data from paper PMC7589583, “Hydroxylation of Antitubercular Drug Candidate, SQ109, by Mycobacterial Cytochrome P450” (International Journal of Molecular Sciences, 2020).

What was measured:
Assay type in all cases: binding
[1] = molecular target: T1, CYP125 (Rv3545c, CYP125A1) (Mycobacterium tuberculosis, UniProt P9WPP1); experiment: biochemical
T1 sequence (P9WPP1 1-433): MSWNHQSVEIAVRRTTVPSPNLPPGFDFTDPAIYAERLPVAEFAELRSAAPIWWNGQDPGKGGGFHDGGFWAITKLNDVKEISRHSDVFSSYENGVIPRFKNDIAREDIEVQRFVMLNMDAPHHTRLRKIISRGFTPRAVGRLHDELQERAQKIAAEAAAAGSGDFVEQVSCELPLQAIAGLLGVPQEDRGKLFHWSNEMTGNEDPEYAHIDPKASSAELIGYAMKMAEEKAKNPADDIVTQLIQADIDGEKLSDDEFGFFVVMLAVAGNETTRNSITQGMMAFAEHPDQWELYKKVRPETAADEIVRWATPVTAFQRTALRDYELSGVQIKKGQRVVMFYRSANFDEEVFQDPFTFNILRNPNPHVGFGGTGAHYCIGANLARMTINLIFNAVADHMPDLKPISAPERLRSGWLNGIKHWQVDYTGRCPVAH

[2] = molecular target: T2, CYP124 (Rv2266, CYP124A1) (Mycobacterium tuberculosis, UniProt P9WPP3); experiment: […] Å co-crystal structure; […]; LC-MS turnover
T2 sequence (P9WPP3 1-428): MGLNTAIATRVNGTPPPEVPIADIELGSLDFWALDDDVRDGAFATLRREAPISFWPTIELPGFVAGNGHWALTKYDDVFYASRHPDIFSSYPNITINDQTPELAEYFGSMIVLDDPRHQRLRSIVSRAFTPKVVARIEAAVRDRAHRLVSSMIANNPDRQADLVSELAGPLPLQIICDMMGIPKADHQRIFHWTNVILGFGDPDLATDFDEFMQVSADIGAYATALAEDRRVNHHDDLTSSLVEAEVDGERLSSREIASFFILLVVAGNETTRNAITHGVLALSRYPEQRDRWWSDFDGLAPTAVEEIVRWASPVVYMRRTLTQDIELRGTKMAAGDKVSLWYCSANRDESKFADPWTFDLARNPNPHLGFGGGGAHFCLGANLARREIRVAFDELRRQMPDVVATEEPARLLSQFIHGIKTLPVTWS

[3] = molecular target: CYP142 (Rv3518c, CYP142A1) (Mycobacterium tuberculosis, UniProt P9WPL5); experiment: biochemical
CYP142 (Rv3518c, CYP142A1), sequence (P9WPL5 whole entry): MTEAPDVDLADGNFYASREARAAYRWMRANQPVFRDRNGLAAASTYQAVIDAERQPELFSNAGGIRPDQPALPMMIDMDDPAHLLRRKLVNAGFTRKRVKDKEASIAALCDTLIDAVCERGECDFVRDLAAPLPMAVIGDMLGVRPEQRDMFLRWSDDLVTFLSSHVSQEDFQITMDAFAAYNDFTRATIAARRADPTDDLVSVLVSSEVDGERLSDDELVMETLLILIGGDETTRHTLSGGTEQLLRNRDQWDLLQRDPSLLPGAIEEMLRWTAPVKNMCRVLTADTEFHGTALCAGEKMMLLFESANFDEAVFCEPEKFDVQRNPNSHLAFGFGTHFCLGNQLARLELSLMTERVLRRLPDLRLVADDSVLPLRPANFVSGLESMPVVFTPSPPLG

## CC(C)=CCC/C(C)=C\CNCCNC1C2CC3CC(C2)CC1C3 (stereo not drawn) [SQ109]
[1]
  Kd: 41 ± 3 µM
[2]
  Kd: 3.4 ± 0.3 µM
[3]
  Kd: 52 ± 11 µM
